Marks after values point to notes of the source that are not given here.
Assays:
[1] = biological target: T1, ERα (Homo sapiens, UniProt P03372); test: Fluorescence polarization competition assay: antagonistic potency and relative binding affinity; conditions: for Ki: calculated antagonistic (inhibitory) constant, read-out: Ka ERα; for IC50: concentration that antagonizes 50% of ERα signaling activity, read-out: ERα (IC50 nM); for logRBA ERα: log of % relative binding affinity, estradiol = 100%; for ERα potency, fold higher than Ral: ratio of IC50 values
T1 sequence (P03372 1-595): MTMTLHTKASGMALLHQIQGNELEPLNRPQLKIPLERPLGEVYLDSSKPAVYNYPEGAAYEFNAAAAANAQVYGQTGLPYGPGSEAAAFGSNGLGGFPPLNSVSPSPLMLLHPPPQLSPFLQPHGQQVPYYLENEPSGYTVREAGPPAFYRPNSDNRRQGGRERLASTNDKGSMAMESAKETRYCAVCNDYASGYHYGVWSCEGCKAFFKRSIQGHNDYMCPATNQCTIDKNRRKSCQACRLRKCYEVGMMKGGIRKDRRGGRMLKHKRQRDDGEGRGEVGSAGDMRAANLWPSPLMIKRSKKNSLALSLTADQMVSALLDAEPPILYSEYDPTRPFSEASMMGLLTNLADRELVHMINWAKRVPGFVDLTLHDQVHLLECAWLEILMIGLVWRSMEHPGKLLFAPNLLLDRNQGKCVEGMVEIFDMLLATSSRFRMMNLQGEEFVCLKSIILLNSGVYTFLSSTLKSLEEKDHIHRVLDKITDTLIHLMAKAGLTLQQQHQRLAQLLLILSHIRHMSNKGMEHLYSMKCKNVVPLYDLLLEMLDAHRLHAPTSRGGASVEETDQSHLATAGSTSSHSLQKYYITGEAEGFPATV

[2] = biological target: ERβ (Homo sapiens, UniProt Q92731); test: as above; conditions: for Ki: calculated antagonistic (inhibitory) constant, read-out: Ka ERβ; for IC50: concentration that antagonizes 50% of ERβ signaling activity, read-out: ERβ (IC50 nM); for logRBA ERβ: log of % relative binding affinity, estradiol = 100%
[3] = tested on: MCF-7 cell lines; test: MTT antiproliferative assay; type: cell-based, human; conditions: for IC50: Homo sapiens, MCF7, growth inhibition, 48 h, read-out: MCF-7 (IC50 nM)
[4] = tested on: MDA-MB-231 cell lines; test: MTT antiproliferative assay; type: cell-based, human; conditions: Homo sapiens, MDA-MB-231; growth inhibition, 48 h; read-out: MDA-MB-231 (IC50 nM)
[5] = biological target: T1, ERα; test: ERα down-regulation immunofluorescence assay in MCF-7; type: cell-based; conditions: ERα downregulation measured in MCF-7; read-out: MCF-7 DR (IC50 nM)
[6] = tested on: progesterone receptor (PR); test: ERα functional antagonism cell assay (PR as biomarker) in MCF-7; type: cell-based; conditions: Homo sapiens, MCF7; progesterone receptor as biomarker for ERα antagonism in MCF-7
[7] = tested on: p53 promoter activity (p21 promoter); test: qChIP of ERα-p53 interaction on the p21 promoter in MCF-7; type: cell-based, human
[8] = tested on: MNU-induced breast cancer; test: In vivo anticancer screening, MNU-induced mammary tumorigenesis; design: species or system female Wistar rats
[9] = Plasma protein binding determination; type: in vitro ADME, rat; conditions: rat plasma, 37 °C, read-out: Rat PPB (%free)
Description: Rats were housed at 3 per cage and
The breast cancer was induced after the MNU (Sigma Aldrich CAS No. 684-93-5) administration. An aqueous solution at a concentration of 10 mg/ml was made by wetting the NMU powder with 3% acetic acid and then dissolving it in 0.9% NaCl solution; a fresh solution was prepared for each injection. Rats were given intraperitoneal (i.p.) 50 mg/kg of MNU on the 50th day of age. Animals were divided into different groups with six animals in each group. Group I (intact control) received 0.9% NaCl solution.
Groups II-IV and V-VII were introduced with MNU. Two weeks after MNU treatment, animals were treated orally with synthesized compounds and control substances (5 and 50 mg/kg, for groups II-IV and V-VII, respectively) by gavage once per day for six weeks. Animals in the intact control group and untreated MNU group were given vehicle (Tween 80) according to the experimental protocol. […]
Upon finishing the treatment with synthesized compounds, animals were sacrificed, and plasma, serum, and liver samples were collected. […]
Rat plasma containing either 5 or 50 mg/kg bwt of the tested compounds was incubated at 37°C upper reservoir of the washed Centri-free YM-30 ultrafiltration units (Millipore, Bedford, MA) and then centrifuged for 20 min at 2,000 g. Aliquots of the ultrafiltrates and unfiltered incubation mixtures were analyzed for the total protein concentration by the bicinchoninic acid assay for protein concentration (BCA assay; Pierce, Rockford, IL).

[10] = Liver oxidative stress markers after treatment of MNU-induced rats; type: in vivo, Wistar rats; conditions: liver; for CAT: catalase activity; for GSH: reduced glutathione; for SOD (U/mg): superoxide dismutase activity; for TP: total protein content
In short: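 Mammary tumours induced in rats by MNU 50 mg/kg i.p. at day 50; after two weeks, compounds given orally at 5 or 50 mg/kg once daily for six weeks. Serum AST, ALT (340 nm), ALP (405 nm) and bilirubin measured; liver homogenate GSH, CAT, MDA by colorimetry; plasma binding by ultrafiltration at 37°C with BCA protein read-out.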

[11] = tested on: MNU-induced breast cancer tissue; test: Histopathology of breast sections; type: in vivo, Wistar rats
In short: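 Rats with MNU-induced breast cancer were given selected leads at two concentrations. Breast tissue was examined histopathologically for lobuloalveolar units and epithelial changes, with slides photographed at 200x.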

[12] = rat, in vivo
[13] = Lipophilicity by shake-flask method; conditions: pH 7.4
[14] = dose 50 mg/kg (compounds per os after MNU; MNU alone i.p.)

ERβ, sequence (Q92731 whole entry): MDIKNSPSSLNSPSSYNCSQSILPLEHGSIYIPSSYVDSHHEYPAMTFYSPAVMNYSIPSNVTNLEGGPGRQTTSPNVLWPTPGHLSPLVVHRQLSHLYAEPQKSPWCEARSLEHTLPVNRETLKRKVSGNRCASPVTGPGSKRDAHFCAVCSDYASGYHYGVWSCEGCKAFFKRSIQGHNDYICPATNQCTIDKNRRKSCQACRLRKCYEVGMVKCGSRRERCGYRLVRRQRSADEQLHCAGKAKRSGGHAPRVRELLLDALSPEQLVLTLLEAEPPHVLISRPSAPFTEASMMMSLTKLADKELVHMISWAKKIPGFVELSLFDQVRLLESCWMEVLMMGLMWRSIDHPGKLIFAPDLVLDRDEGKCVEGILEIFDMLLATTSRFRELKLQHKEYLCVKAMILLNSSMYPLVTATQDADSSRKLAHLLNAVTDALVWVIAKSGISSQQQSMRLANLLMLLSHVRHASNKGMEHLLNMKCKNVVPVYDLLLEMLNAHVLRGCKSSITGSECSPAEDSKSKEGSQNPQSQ

SMILES | Ki [1] | IC50 [1] | logRBA ERα [1] | ERα potency, fold higher than Ral [1] | Ki [2] | IC50 [2] | logRBA ERβ [2] | IC50 [3] | IC50 [4] | IC50 [5] | IC50 [6] | p53 promoter activity, fold higher than the one provoked by Ral ([7]; higher concentration (1 nM)) | p53 promoter activity, fold higher than the one provoked by Ral ([7]; lower concentration (0.1 nM)) | Tumor Burden (week) ([8]; dose 5 mg/kg per os after MNU) | Tumor Latency (week) ([8]; dose 5 mg/kg per os after MNU) | Tumor Volume (mm^3) ([8]; dose 5 mg/kg per os after MNU) | Tumor Burden (week) [8, 14] | Tumor Latency (week) [8, 14] | Tumor Volume (mm^3) [8, 14] | fraction unbound at 5 mg/kg bwt [9] | further results
CC(=O)c1cc(C(=O)O[C@@H]2/C=C/C(=O)O[C@@H](O)CCC/C=C/[C@@H]3C[C@H](O)C[C@H]32)ccc1OCCN1CCCC(O)C1=O (stereo partly drawn) [Compound 3DPQ-12, (1R,2E,6R,10E,11aS,13S,14aR)-6,13-dihydroxy-4-oxo-4,6,7,8,9,11a,12,13,14,14a-decahydro-1H-cyclopenta[f][1]oxacyclotridecin-1-yl 3-acetyl-4-(2-(3-hydroxy-2-oxopiperidin-1-yl)ethoxy)benzoate] | 0.09 nM | 0.4 ± 0.43 nM | 2.35 ^†,‡,§ | 1.85 fold | 50.3 nM | 89.45 ± 0.31 nM | 0.00 ^†,‡,§ | 0.56 ± 0.11 nM | 82.84 ± 0.61 nM | > 100 nM | > 100 nM | 0.55 fold | 0.65 fold | 2.24 ± 0.54 *^,†,‡,‖ week | 12 *^,†,‡ week | 0.67 ± 0.22 *^,†,‡,‖ mm^3 | 0.94 ± 0.35 *^,†,§,┴ week | 15 *^,†,§ week | 0.34 ± 0.11 *^,†,§,┴ mm^3 | 0.0124 | fraction unbound at 50 mg/kg bwt [9]: 0.0131; CAT ([10]; dose 5 mg/kg): 14.55±0.51; CAT ([10]; dose 50 mg/kg): 19.46±0.75; TBARS ([10]; dose 5 mg/kg): 0.92 nmol/mg; TBARS ([10]; dose 50 mg/kg): 1.05 nmol/mg; GSH ([10]; dose 5 mg/kg): 8.96 mg/g; GSH ([10]; dose 50 mg/kg): 9.02 mg/g; SOD (U/mg) ([10]; dose 5 mg/kg): 5.43±0.25 U/mg; SOD (U/mg) ([10]; dose 50 mg/kg): 13.32±0.43 U/mg; TP ([10]; dose 5 mg/kg): 336.12 g/L; TP ([10]; dose 50 mg/kg): 389.35 g/L; breast section histopathology ([11]; 5 mg/kg of bwt): lobuloalveolar unit (LaU) and cuboidal epithelial cells (CE); breast section histopathology ([11]; 50 mg/kg of bwt): lobuloalveolar unit (LaU) and cuboidal epithelial cells (CE); WL after MFD (day 1, mg) [12]: 305.06 ± 0.94 mg; logD at 30 min [13]: 2.06
CC(=O)c1cc(C(=O)O[C@@H]2/C=C/C(=O)O[C@@H](O)CCC/C=C/[C@@H]3C[C@H](O)C[C@H]32)ccc1OCCN(C)C [Compound 3DPQ-2, (1R,2E,6R,10E,11aS,13S,14aR)-6,13-dihydroxy-4-oxo-4,6,7,8,9,11a,12,13,14,14a-decahydro-1H-cyclopenta[f][1]oxacyclotridecin-1-yl 3-acetyl-4-(2-(dimethylamino)ethoxy)benzoate] | 0.12 nM | 0.54 ± 0.31 nM | 2.22 ^†,‡,§ | 1.37 fold | 43.4 nM | 77.24 ± 0.42 nM | 0.06 ^†,‡,§ | 0.73 ± 0.42 nM | 72.42 ± 0.47 nM | > 100 nM | > 100 nM | 0.66 fold | 0.733 fold | 3.34 ± 0.57 *^,†,‖ week | 9 * week | 0.96 ± 0.41 *^,†,‡,‖ mm^3 | 1.98 ± 0.45 *^,†,§,┴ week | 12 *^,† week | 0.69 ± 0.23 *^,†,§,┴ mm^3 | 0.0115 | MCF-7 antiproliferative potency, fold higher than Ral ([3]; ratio of IC50 values): 1.21 fold; SI ([3]; selectivity index [IC50(MDA-MB-231)]/[IC50(MCF-7)]): 99.20 ^‡,§; fraction unbound at 50 mg/kg bwt [9]: 0.0124; CAT ([10]; dose 5 mg/kg): 15.54±0.51; CAT ([10]; dose 50 mg/kg): 17.31±0.63; TBARS ([10]; dose 5 mg/kg): 0.56 nmol/mg; TBARS ([10]; dose 50 mg/kg): 0.75 nmol/mg; GSH ([10]; dose 5 mg/kg): 9.96 mg/g; GSH ([10]; dose 50 mg/kg): 10.35 mg/g; SOD (U/mg) ([10]; dose 5 mg/kg): 9.63±0.56 U/mg; SOD (U/mg) ([10]; dose 50 mg/kg): 12.3±0.36 U/mg; TP ([10]; dose 50 mg/kg): 41.54 g/L; breast section histopathology ([11]; 5 mg/kg of bwt): lobuloalveolar unit (LaU) and cuboidal epithelial cells (CE); WL after MFD (day 1, mg) [12]: 305.03 ± 0.66 mg; logD at 30 min [13]: 1.99
